Measured values published in US20250313828A1, “SYNTHETIC GENETIC PLATFORM IN EUKARYOTE CELLS AND METHODS OF USE” (University of Washington, priority 2022, published 2025).
Entries after “also recorded” stand apart in the source; their conditions may differ.

Legend:
[1] = test system: auxin promoter::Venus; test: Repression activity of H1 helices fused to IAA3 in the AtARCSc, fluorescence flow cytometry; assay type: cell-based, Saccharomyces cerevisiae; conditions: for Repression activity of H1-HA-IAA3 library constructs: H1-HA-IAA3 expressed off a plasmid, static ARC components integrated at URA3
[2] = assay type: cell-based, Saccharomyces cerevisiae
Experimental: Western Blot. […] Cells were harvested by centrifugation. Cells were lysed by vortexing for 5 min in the presence of 200 μl of 0.5-mm diameter acid washed glass beads and 200 μl SUMEB buffer (1% SDS, 8 M urea, 10 mM MOPS pH 6.8, 10 mM EDTA, 0.01% bromophenol blue, 1 mM PMSF) per one OD unit of original culture. Lysates were then incubated at 65° C. for 10 min and cleared by centrifugation prior to electrophoresis and blotting. Antibodies: anti-HA-HRP (REF-12013819001, Clone 3F10, Roche/Millipore Sigma, St. Louis, MO), anti-PGK1 (ab113687, AbCam). Protein concentrations were quantified using ImageJ, with PGK1 protein measured in each strain to normalize protein concentrations across strains. To compare protein concentrations to […]1, these were then normalized to TPL concentration using this equation: ([[…]1 normalized protein concentrations were plotted on a Log 2 scale.

[3] = test system: synthetic auxin reporter DR5-Venus; test: H1 repression assay, transient transformation in tobacco leaves; assay type: in vivo, Nicotiana benthamiana; conditions: transient expression in tobacco, IAA3 EAR motif mutated to AxAxA
Experimental: Reporter activation was measured in four separate leaf injections (biological replicates) in two days of injection (boxplots illustrated in FIG. 5C are pooled data from one day, with two replicates divided on right and left panels). Each leaf was excised at 8 locations and measured for Venus fluorescence using a plate scanner. pDR5:Venus: the synthetic DR5 auxin promoter (Ulmasov et al., Plant Cell 9, 1963-1971, 1997) driving Venus; ARF19: […]; […] Plant growth. […] Strain density was normalized to an OD600 of 1 for each strain in the final mixture of strains before injection into tobacco leaves. Leaves were removed, and eight different regions were excised using a hole punch, placed into a 96-well microtiter plate with 100 μl of water. Each leaf punch was scanned in a 4×4 grid for yellow and red fluorescence using a plate scanner (Tecan Spark, Tecan Trading AG, Switzerland). Fluorescence data was quantified and plotted in R (ggplots2).

[4] = biological target: T1, H1 sequence of TBL1 (Homo sapiens, UniProt O60907); test: Small molecule testing on the yeast H1 platform, TBL1 helix fused to IAA3; assay type: cell-based; conditions: yeast cultured 4 hours with compound, flow cytometry, absence of Beta-catenin
T1 construct: expressed in transfected cells; host or cells: Saccharomyces cerevisiae reporter strain (AFB2, ARF19 and auxin promoter::Venus integrated at URA3)
Experimental: (§1) Yeast were grown overnight from a dilution of […] at 30° C. and 250 rpm. When cell density reached […] either control (DMSO) or small molecule BC2059 were added at the indicated concentration, and cultured for 4 hours before being measured for fluorescence by flow cytometry. Each data point represents three independent time-course flow cytometry experiments of the helices indicated, all fused to IAA3. Every point represents the average fluorescence of at least 10,000 individually measured yeast cells (a.u.: arbitrary units). Error bars are standard error.

[5] = biological target: T2, TPL sequence (Arabidopsis thaliana, UniProt Q94AI7); test: Small molecule testing on the yeast H1 platform, TPL helix fused to IAA3; assay type: cell-based; conditions: yeast cultured 4 hours with compound, flow cytometry
T2 construct: a construct carrying only the first 18 amino acids of Helix 1 of the LisH domain fused to IAA3; expressed in transfected cells; host or cells: Saccharomyces cerevisiae reporter strain (AFB2, ARF19 and auxin promoter::Venus integrated at URA3)
Experimental: as §1

[6] = test system: mutant TBL1 H1 sequence; test: Cancer variant detection using the yeast H1 platform; assay type: cell-based, Homo sapiens (Human); conditions: 500 nM, 4 hours, compared with wild type TBL1 H1
Experimental: as §1, with “of the TBL1 or control helices indicated,” for “of the helices indicated,”
Yeast carrying either the wild type or mutant TBL1 H1 sequence were cultured in the presence or absence of 500 nM Tegatrabetan and fluorescence measured by flow cytometry. […] This approach is particularly relevant to personalized medicine for a given mutation in a patient.

With “HsTBL1X Y64C: cancer variant H1 DEVNFLVCRYLQE, SEQ ID NO: 81” the “Repression activity of H1-HA-IAA3 library constructs” value (“Repression activity” for short) [1] was “strongest repressor” and the “Protein accumulation / stability” value [2] was “highest accumulation”.

In the case of “R6V: TPL H1 mutant VELVFLILQFLDE, SEQ ID NO: 106”, the “Repression activity” value [1] is reported as “loss of repression” and the “Protein accumulation / stability” value [2] is reported as “negative effect on protein accumulation”.

With “1853M: cancer variant H1 KELLLLMRNHLIS, SEQ ID NO: 85” the “Repression activity” value [1] was “slightly decrease” and the “Protein accumulation / stability” value [2] was “slightly increasing protein accumulation”.

For “H856Y: cancer variant H1 KELLLLIRNYLIS, SEQ ID NO: 87”, the “Repression activity” value [1] was “not significantly affected” and the “Protein accumulation / stability” value [2] was “not significantly affected”.

For “R854Q: cancer variant H1 KELLLLIQNHLIS, SEQ ID NO: 86”, the “Repression activity” value [1] was “increase” and the “Protein accumulation / stability” value [2] was “slightly increasing protein accumulation”.

With “SpHIF2: H1 sequence NQVNYIIWRYLKE, SEQ ID NO: 17 (Schizosaccharomyces pombe)” the “Repression activity” value [1] was “not detected” and the “Protein accumulation / stability” value [2] was “very poor protein stability”.

In the case of “HsLIS1: H1 sequence DELNRAIADYLRS, SEQ ID NO: 63 (listed as Homo sapiens)”, the “Repression activity” value [1] is reported as “repressive” and the “Protein accumulation / stability” value [2] is reported as “well expressed”.

For “F10A: TPL H1 mutant RELVALILQFLDE, SEQ ID NO: 121”, the “Time course flow cytometry following auxin addition (de-repression)” value ([1]; AtARCSc in yeast, auxin (IAA-10 μM) added) was “strengthened the durability of repression H1, converting it into an auxin-insensitive repression domain; also recorded: loss of auxin sensitivity” and the “Repression of reporter in planta” value [3] was “improvements in repression in tobacco compared to wild type”.

With “R14W: cancer variant H1 DEVNFLVYWYLQE, SEQ ID NO: 83” the “Repression activity” value [1] was “higher repression rates” and the “Protein accumulation / stability” value [2] was “reductions in protein abundance”.

In the case of “R6E: TPL H1 mutant EELVFLILQFLDE, SEQ ID NO: 91”, the “Repression activity” value [1] is reported as “loss of repression” and the “Protein accumulation / stability” value [2] is reported as “negative effect on protein accumulation”.

With “PfGID8: H1 tested in tobacco; perhaps H1-BCR36DRAFT, KDLNKLIMNYLVI, SEQ ID NO: 36 (listed as Chytriomyces confervae)” the “Repression of reporter in planta” value [3] was “less”.

With “L851F: cancer variant H1 KELLFLIRNHLIS, SEQ ID NO: 84” the “Repression activity” value [1] was “dramatically reduces” and the “Protein accumulation / stability” value [2] was “dramatically reduces”.

With “R6N: TPL H1 mutant NELVFLILQFLDE, SEQ ID NO: 94” the “Repression activity” value [1] was “loss of repression” and the “Protein accumulation / stability” value [2] was “negative effect on protein accumulation”.

In the case of “R65Q: cancer variant H1 DEVNFLVYQYLQE, SEQ ID NO: 82”, the “Repression activity” value [1] is reported as “higher repression rates” and the “Protein accumulation / stability” value [2] is reported as “reductions in protein abundance”.

In the case of C[C@@H]1C[C@H](C)CN(S(=O)(=O)c2ccc3c(c2)C(=NO)c2cc(S(=O)(=O)N4C[C@H](C)C[C@H](C)C4)ccc2C3=NO)C1 [BC2059, Tegavivint], the “Effect on TBL1's repressive activity on transcription” value [4] is reported as “dose-dependent interference”, the “Effect on TPL H1 repression” value [5] is reported as “unaffected” and the “Responsiveness of TBL1 H1 cancer variant mutations to the compound” value [6] is reported as “Certain cancer mutants were less sensitive to treatment”.

With “DmGID8: H1 tested in tobacco; probably H1-DmDMEI, ADLNRLVMNYLVT, SEQ ID NO: 38 (listed as Drosophila sechellia)” the “Repression of reporter in planta” value [3] was “not functional”.
